Key:
Format in all cases: in vivo
Viola tricolor (VIOTR) = assay: Post-emergence herbicidal action, greenhouse pot test
Description: (§1) Seeds of monocotyledonous and dicotyledonous weeds and crop plants were placed in sandy loam in plastic or wood-fiber pots, covered with soil and cultivated in a greenhouse under controlled growth conditions. 2 to 3 weeks after sowing, the test plants were treated at the one-leaf stage. The compounds of the invention, formulated in the form of wettable powders (WP) or as emulsion concentrates (EC), were then sprayed onto the green parts of the plants as aqueous suspension or emulsion with addition of 0.5% additive at a water application rate of 600 l/ha (converted). After the test plants had been kept in the greenhouse under optimum growth conditions for about 3 weeks, the activity of the preparations was rated visually in comparison to untreated controls. For example, 100% activity=the plants have died, 0% activity=like control plants.
(§2) Tables A1 to A14 below show the effects of selected compounds of the general formula (I) according to Tables I.1 to I.33 on various harmful plants and at an application rate corresponding to 20 g/ha and less, which were obtained by the experimental method specified above. The appendices “a”, “b” and “c” give differentiation by different dosage with otherwise the same harmful plants tested.

Veronica persica (VERPE) = assay: as above
Description: as §1, §2

[1] = test system: Amaranthus retroflexus (AMARE); assay: as above; conditions: rated visually after about 3 weeks vs untreated controls, 100% = plants have died
Description: as §1, §2

[2] = test system: Polygonum convolvulus (POLCO); assay: as above
Description: as §1, §2

[3] = test system: Pharbitis purpurea (PHBPU); assay: as above
Description: as §1, §2

[4] = test system: Abutilon theophrasti (ABUTH); assay: as above; conditions: rated visually after about 3 weeks vs untreated controls, 100% = plants have died
Description: as §1, §2

[5] = test system: Echinochloa crus-galli (ECHCG); assay: Post-emergence herbicidal action, greenhouse pot test (also comparative test C)
Description: as §1, §2
(§3) C. Comparative Herbicidal Action and Crop Plant Compatibility of Two Inventive Compounds (I.7-1 and I.7-115) with a Compound of Similar Structure Known from the Literature (WO2002/098227, a-17 and EP1106607, 3-14) in Post-Emergence Treatment.
(§4) Tables C1-C4 below show the effects of two inventive compounds (I.7-1 and I.7-115) together with a compound of similar structure known from the literature (a-17 in WO2002/098227, and 3-14 in EP1106607) in different crop plants at an application rate corresponding to 5 g/ha or less, which have been obtained by the aforementioned experimental procedure.

[6] = test system: Alopecurus myosuroides (ALOMY); assay: as above; conditions: 20 g/ha, rated visually after about 3 weeks vs untreated controls, 100% = plants have died
Description: as §1, §2, §3, §4

Setaria viridis (SETVI) = assay: as above; conditions: for Post-emergence action against SETVI: 20 g/ha
Description: as §1, §2, §3, §4

[7] = test system: Matricaria inodora (MATIN); assay: as above
Description: as §1, §2, §3, §4

[8] = test system: Triticum aestivum (TRZAS); assay: Post-emergence crop plant compatibility, greenhouse pot test; conditions: vs untreated controls
Description: as §1
(§5) The observed effects on selected crop plants are reported here in comparison to the untreated controls (values in %). The appendices “a”, “b” and “c” give differentiation by different dosage with otherwise the same crop plants tested.

Zea mays (ZEAMX) = assay: as above; conditions: vs untreated controls
Description: as §1, §5

Oryza sativa (ORYSA) = assay: Post-emergence crop plant compatibility, greenhouse pot test (also comparative test C); conditions: for Post-emergence action against ORYSA (crop plant compatibility): vs untreated controls; for Post-emergence action against ORYSA in %: 20 g/ha, crop plant compatibility
Description: as §1, §5, §3

SMILES | Post-emergence action against VIOTR (Viola tricolor (VIOTR); 1.25 g/ha) [%] | Post-emergence action against VIOTR (Viola tricolor (VIOTR); 5 g/ha) [%] | Post-emergence action against VIOTR (Viola tricolor (VIOTR); 20 g/ha) [%] | Post-emergence action against VERPE (Veronica persica (VERPE); 5 g/ha) [%] | Post-emergence action against VERPE (Veronica persica (VERPE); 20 g/ha) [%] | Post-emergence action at 1.25 g/ha against AMARE in % [1] [%] | Post-emergence action at 5 g/ha against AMARE in % [1] [%] | Post-emergence action at 20 g/ha against AMARE in % [1] [%] | Post-emergence action against POLCO in % ([2]; dosage 20 g/ha) [%] | Post-emergence action against PHBPU in % ([3]; dosage 5 g/ha) [%] | Post-emergence action against PHBPU in % ([3]; dosage 20 g/ha) [%] | Post-emergence action at 5 g/ha against ABUTH in % [4] [%] | Post-emergence action at 20 g/ha against ABUTH in % [4] [%] | Post-emergence action against ECHCG in % ([5]; dosage 5 g/ha) [%] | Post-emergence action against ECHCG in % ([5]; dosage 20 g/ha) [%] | Post-emergence action at 20 g/ha against ALOMY in % [6] [%] | Post-emergence action against SETVI (Setaria viridis (SETVI)) [%] | Post-emergence action against SETVI in % (Setaria viridis (SETVI); dosage 5 g/ha) [%] | Post-emergence action against MATIN in % ([7]; dosage 20 g/ha) [%] | Post-emergence action against TRZAS (crop plant compatibility) ([8]; 1.25 g/ha) [%] | other results
COCCOCCOC(=O)COc1ccc(F)cc1Oc1cc(-n2c(=O)cc(C(F)(F)F)n(C)c2=O)c(F)cc1Cl [I.23-23] | 100 | 100 | 100 | 100 | 100 | 100 | 100 | 100 | 100 | 100 | 100 | 100 | 100 | 100 | 100 | 100 | 100 | 100 | 100 | 20 | Post-emergence action against POLCO in % ([2]; dosage 1.25 g/ha): 100%; Post-emergence action against POLCO in % ([2]; dosage 5 g/ha): 100%; Post-emergence action against PHBPU in % ([3]; dosage 1.25 g/ha): 100%; Post-emergence action against SETVI in % (Setaria viridis (SETVI); dosage 1.25 g/ha): 100%; Post-emergence action against ZEAMX (crop plant compatibility) (Zea mays (ZEAMX); 1.25 g/ha): 20%
Cn1c(C(F)(F)F)cc(=O)n(-c2cc(Oc3ccccc3OCC(=O)OCc3cccnc3)c(Cl)cc2F)c1=O [I.7-277] | 80 | 100 | 100 | 100 | 100 | 100 | 100 | 100 | 100 | 100 | 100 | 100 | 100 | 100 | 100 | 100 | 100 | 100 | 100 | 0 | Post-emergence action against VERPE (Veronica persica (VERPE); 1.25 g/ha): 100%; Post-emergence action at 1.25 g/ha against ABUTH in % [4]: 90%; Post-emergence action against SETVI in % (Setaria viridis (SETVI); dosage 1.25 g/ha): 100%; Post-emergence action against MATIN in % ([7]; dosage 5 g/ha): 80%; Post-emergence action against TRZAS (crop plant compatibility) ([8]; 5 g/ha): 20%; Post-emergence action against ZEAMX (crop plant compatibility) (Zea mays (ZEAMX); 1.25 g/ha): 0%; Post-emergence action against ORYSA (crop plant compatibility) (Oryza sativa (ORYSA); 1.25 g/ha): 0%; Post-emergence action against ORYSA (crop plant compatibility) (Oryza sativa (ORYSA); 5 g/ha): 0%; Post-emergence action against ORYSA in % (Oryza sativa (ORYSA)): 20%
COCCOC(=O)COc1ccccc1Oc1cc(-n2c(=O)cc(C(F)(F)F)n(C)c2=O)c(F)cc1C#N [I.9-1] | 100 | 100 | 100 | 100 | 100 | 100 | 100 | 100 | 100 | 100 | 100 | 100 | 100 | 90 | 100 | – | 100 | 100 | 100 | 0 | Post-emergence action against VERPE (Veronica persica (VERPE); 1.25 g/ha): 100%; Post-emergence action at 1.25 g/ha against ABUTH in % [4]: 100%; Post-emergence action against SETVI in % (Setaria viridis (SETVI); dosage 1.25 g/ha): 80%; Post-emergence action against MATIN in % ([7]; dosage 5 g/ha): 80%; Post-emergence action against TRZAS (crop plant compatibility) ([8]; 5 g/ha): 10%; Post-emergence action against TRZAS (crop plant compatibility) ([8]; 20 g/ha): 10%; Post-emergence action against ZEAMX (crop plant compatibility) (Zea mays (ZEAMX); 1.25 g/ha): 10%; Post-emergence action against ORYSA (crop plant compatibility) (Oryza sativa (ORYSA); 1.25 g/ha): 0%; Post-emergence action against ORYSA (crop plant compatibility) (Oryza sativa (ORYSA); 5 g/ha): 20%
Cn1c(C(F)(F)F)cc(=O)n(-c2cc(Oc3ccccc3OCC(=O)OCC[N+](=O)[O-])c([N+](=O)[O-])cc2F)c1=O [I.6-183] | 90 | 100 | 100 | 100 | 100 | 100 | 100 | 100 | 100 | 100 | 100 | 100 | 100 | – | 80 | 90 | 100 | 100 | 100 | 0 | Post-emergence action against PHBPU in % ([3]; dosage 1.25 g/ha): 100%; Post-emergence action against MATIN in % ([7]; dosage 5 g/ha): 80%; Post-emergence action against TRZAS (crop plant compatibility) ([8]; 5 g/ha): 20%; Post-emergence action against ZEAMX (crop plant compatibility) (Zea mays (ZEAMX); 1.25 g/ha): 20%; Post-emergence action against ZEAMX (crop plant compatibility) (Zea mays (ZEAMX); 5 g/ha): 20%; Post-emergence action against ORYSA (crop plant compatibility) (Oryza sativa (ORYSA); 1.25 g/ha): 0%; Post-emergence action against ORYSA (crop plant compatibility) (Oryza sativa (ORYSA); 5 g/ha): 0%; Post-emergence action against ORYSA in % (Oryza sativa (ORYSA)): 0%
Cn1c(C(F)(F)F)cc(=O)n(-c2cc(Oc3c(F)cccc3OCC(=O)OCC#N)c(Cl)cc2F)c1=O [I.19-176] | 80 | 100 | 100 | 100 | 100 | 100 | 100 | 100 | 100 | 100 | 100 | 100 | 100 | 100 | 100 | 80 | 100 | 100 | 100 | 20 | Post-emergence action against VERPE (Veronica persica (VERPE); 1.25 g/ha): 100%; Post-emergence action against POLCO in % ([2]; dosage 1.25 g/ha): 100%; Post-emergence action against POLCO in % ([2]; dosage 5 g/ha): 100%; Post-emergence action against PHBPU in % ([3]; dosage 1.25 g/ha): 100%; Post-emergence action at 1.25 g/ha against ABUTH in % [4]: 100%; Post-emergence action against SETVI in % (Setaria viridis (SETVI); dosage 1.25 g/ha): 90%; Post-emergence action against MATIN in % ([7]; dosage 5 g/ha): 100%; Post-emergence action against ORYSA (crop plant compatibility) (Oryza sativa (ORYSA); 1.25 g/ha): 0%

Reference: patent US20240025862A1, “SUBSTITUTED N-PHENYLURACILS AND SALTS THEREOF, AND USE THEREOF AS HERBICIDAL ACTIVE SUBSTANCES” (Bayer Aktiengesellschaft, priority 2020, published 2024)
